1 compound from patent US11439615B2, “Lipoxin and lipoxin analogue mediated neuroprotection and treatments” (University Health Network, priority 2017, dated 2022) can be followed below.

The subject of one data set is HT22 cells. Description: MitoTracker Red mitochondrial membrane potential in glutamate challenged HT22 cells. In kind it is cell-based. As to conditions: 1 μM, HT22 cells challenged with glutamate. From the text: The mechanism of protection was investigated. […] FIG. 15B show quantification of fluorescent intensity per cell (n=3, *p<0.05, **p<0.01, bars represent S.E.M.).

Data set [1] deals with retinal ganglion cell neurons (RGCs). As to the kind of experiment: Rat chronic IOP (circumlimbal suture) glaucoma model. In kind it is in vivo. From the text:
A method for reliably inducing sustained IOPs in the rodent eye was recently developed by Liu et al (55, 56). In this minimally invasive approach, a circumlimbal suture is placed to induce chronic ocular hypertension. An advantage of this strategy is that specific IOPs can be targeted and monitored by rebound tonometry, improving the consistency of results. In addition, following suturing elevated IOPs can be maintained for as long as 15 weeks (55). The model reproduces key features of glaucoma, such as; progressive and preferential decline in RGC function starting by week 8, gradual loss of the retinal nerve fiber layer (RNFL) by week 12, and RGC death by week 15, with minimal overt inflammation (55, 57). In the experiments, circumlimbal sutures were placed in the randomized right or left eyes of anesthetized rats using a sterile 8-0 nylon suture. IOP was measured twice a week, and only animals showing sustained elevated IOP over 21 mmHg for the duration of the experiment were included in the analyses. The delivery and dosage of LXB4 was based on previous publications (58-60). Briefly, LXB4 or vehicle were administered starting from week 8 on alternate days. Due to the unstable nature of lipoxins, a hybrid approach was taken to ensure consistent delivery, including both IP delivery (1 μg) and topically to each eye (100 ng). ERG was measured monthly to assess RGC functional changes using the positive scotopic threshold response (pSTR), which has been used to measure the impact of elevated chronic IOP in rats (55, 61). In addition, RNFL and total retinal thickness were quantified once a month using optical coherence tomography (OCT). After 15 weeks, animals were euthanized and RGC numbers were counted on middle and peripheral quadrants of retinal flatmounts following immunofluorescent staining for the RGC marker BRN3a as above.
Therapeutic LXB4 treatment rescues RGC function in a chronic IOP dependent glaucoma model. To assess whether LXB4 action extends beyond acute stress models, it was investigated if it provides RGC protection in a chronic model more relevant to human neurodegenerative disease. For this purpose a recently described rat perilimbal suture model of glaucoma was used, in which moderately elevated intraocular pressure (IOP) can be consistently maintained over 15 weeks (55, 57). Elevated IOP is the primary clinical glaucoma risk factor, and this model results in similar compromised RGC function, reduced nerve fiber layer (NFL) thickness, and death of RGCs by week 15 (55). […] Therefore, this time point was chosen to initiate an experiment in which therapeutic treatment with LXB4 or vehicle was administered to sutured rats starting at week 8, with longitudinal and pathological assessment of RGC function and survival (FIG. 6A).
LXB4 or vehicle treatment of sutured rats was initiated after 8 weeks of elevated IOP, and was delivered on alternate days until week 15. A control group was treated with vehicle only. Additionally, for each rat increased IOP was induced in the unilaterally, with the contralateral eye serving as control. IOP was monitored twice weekly throughout the experiment. As functional and structural endpoints, electroretinograms (ERG) and optical coherence tomography (OCT) were measured at week 0 (before placing the suture), and on weeks 4, 8, and 12, and 15 of elevated IOP.
In vehicle eyes there were 35% and 30% fewer BRN3a positive RGCs in sutured eyes compared to contralateral controls in the […], respectively (FIG. 7A-FIG. 7B).

For the compound `CCCCC[C@H](O)[C@H](O)/C=C/C=C/C=C\C=C\[C@@H](O)CCCC(=O)O` [LXB4, 5S,14R,15S-trihydroxy-6E,8Z,10E,12E-eicosatetraenoic acid], the “glutamate induced increase in mitochondrial membrane potential (MitoTracker Red)” value with HT22 cells is “blocked the glutamate induced increase in mitochondrial membrane potential”. Moreover, the “RGC function, positive scotopic threshold response (pSTR, ERG)” value in data set [1] (IP 1 μg and topical 100 ng on alternate days from week 8 to 15, by week 12, vs vehicle) is recorded as “significant recovery”. In addition, the “IOP levels compared to vehicle treated group” value in data set [1] (measured twice weekly throughout) is on record as “did not differ”. Besides, in data set [1] (treatment week 8 to 15), the “a-wave (photoreceptor) and b-wave (bipolar cell) ERG signals” value is “no LXB4 effects”; the “total retinal thickness (OCT)” value is “not affected”. The “RNFL thickness loss (OCT)” value in data set [1] (treatment week 8 to 15, by week 15, vs vehicle) is “partially rescued”. Besides, in data set [1] (week 15, vs vehicle), the “BRN3a positive RGCs on retinal flatmounts, inner and outer retina” value is on record as “significant rescue of RGCs”.
